From US20210353658A1, “COMPOSITION AND METHOD OF INHIBITING CORTISONE REDUCTASE” (Amorepacific Corporation, priority 2018, published 2021)

What was measured:
[1] = molecular target: T1, 11β-hydroxysteroid dehydrogenase type 1 (Homo sapiens, UniProt P28845); assay: Cortisone reductase activity inhibition: cortisol concentration in the culture solution of UVB-irradiated, cortisone-treated NHEK, by ELISA; format: cell-based; conditions: UVB 25 mJ/cm^2, cortisone 10 μg/ml, compound 10 μg/ml, cultured 4 days, ELISA (FIG. 1)
T1 construct: endogenous in cells; host or cells: normal human epidermal keratinocytes (NHEK), UVB-irradiated
T1 sequence (P28845 whole entry): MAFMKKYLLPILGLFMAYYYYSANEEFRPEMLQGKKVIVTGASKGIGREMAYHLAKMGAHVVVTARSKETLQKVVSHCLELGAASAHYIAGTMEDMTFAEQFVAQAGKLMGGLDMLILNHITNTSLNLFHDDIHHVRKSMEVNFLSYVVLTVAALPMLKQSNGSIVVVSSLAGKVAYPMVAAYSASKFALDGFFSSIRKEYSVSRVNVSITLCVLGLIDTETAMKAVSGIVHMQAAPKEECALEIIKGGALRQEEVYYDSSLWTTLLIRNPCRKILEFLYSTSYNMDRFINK
Description: (§1) Normal human epidermal keratinocytes (NHEK) were cultured in a 6-well plate incubator. Specifically, the normal human epidermal keratinocytes (NHEK) were cultured for 4 days by replacing it with phosphate-buffered saline (PBS) after 24 hours to irradiate UVB (25 mJ/cm^2) and adding cortisone (10 μg/ml) and a compound represented by Chemical Formula 1-1 (glucocerebrosides (soy, 98%), Avanti Polar Lipids, Inc.) to NHEK culture media.
Subsequently, the cell culture solution was collected to measure a cortisol concentration in an ELISA method, and the results are shown in FIG. 1. […] Accordingly, a composition including the compound represented by Chemical Formula 1-1 as an active ingredient according to an embodiment turned out to inhibit activity of 11β-hydroxysteroid dehydrogenase type 1 that is cortisone reductase.

[2] = test system: keratinocyte differentiation markers of KRT1 and KRT10; assay: RT-qPCR (TAQMAN real-time PCR) gene expression of keratinocyte differentiation markers in UVB-irradiated NHEK; format: cell-based, human; conditions: compound 10 μg/ml
Description: as §1
In addition, the normal human epidermal keratinocytes (NHEK) were treated with TRIZOL to separate RNA, which was used to synthesize cDNA through RT-PCR (reverse transcriptional polymerase chain reaction). The synthesized cDNA was used to perform TAQMAN® real-time PCR and measure gene expression amounts of keratinocyte differentiation markers of KRT1 and KRT10, and the results are shown in FIGS. 2 and 3. Referring to FIGS. 2 and 3, in the well to which the compound represented by Chemical Formula 1 (10 μg/ml) was added, the gene expression of the keratinocyte differentiation markers (KRT10, KRT1) inhibited by ultraviolet (UVB) rays in the keratinocytes was increased. […]

cortisol concentration in cell culture solution [1]: greatly did not increase
SMILES: CCCCCCCCC/C=C/CC/C=C/[C@@H](O)[C@H](CO[C@@H]1OC(CO)[C@H](O)C(O)C1O)NC(=O)C(O)CCCCCCCCCCCCCC (stereo partly drawn) [Chemical Formula 1-1, glucocerebrosides (soy, 98%)]
gene expression of keratinocyte differentiation marker KRT10 inhibited by UVB ([2]; RT-qPCR (FIG. 2)): increased
gene expression of keratinocyte differentiation marker KRT1 inhibited by UVB ([2]; RT-qPCR (FIG. 3)): increased
